Assay results taken from publication PMC6911684 (Bioorganic & medicinal chemistry letters, 2019).

What was measured:
RPMI-8226 cells [1] = experiment: Cellular protein prenylation assays; type: cell-based, human
RPMI-8226 cells [2] = conditions: HMG-CoA reductase inhibitor, 10 μM in Figure 2; cited from earlier work
GGTase II [3] = molecular target: T1, GGTase II (Homo sapiens, UniProt P53611+Q92696); experiment: GGTase II in vitro enzyme assay; type: biochemical
T1 sequence (Q92696 1-567): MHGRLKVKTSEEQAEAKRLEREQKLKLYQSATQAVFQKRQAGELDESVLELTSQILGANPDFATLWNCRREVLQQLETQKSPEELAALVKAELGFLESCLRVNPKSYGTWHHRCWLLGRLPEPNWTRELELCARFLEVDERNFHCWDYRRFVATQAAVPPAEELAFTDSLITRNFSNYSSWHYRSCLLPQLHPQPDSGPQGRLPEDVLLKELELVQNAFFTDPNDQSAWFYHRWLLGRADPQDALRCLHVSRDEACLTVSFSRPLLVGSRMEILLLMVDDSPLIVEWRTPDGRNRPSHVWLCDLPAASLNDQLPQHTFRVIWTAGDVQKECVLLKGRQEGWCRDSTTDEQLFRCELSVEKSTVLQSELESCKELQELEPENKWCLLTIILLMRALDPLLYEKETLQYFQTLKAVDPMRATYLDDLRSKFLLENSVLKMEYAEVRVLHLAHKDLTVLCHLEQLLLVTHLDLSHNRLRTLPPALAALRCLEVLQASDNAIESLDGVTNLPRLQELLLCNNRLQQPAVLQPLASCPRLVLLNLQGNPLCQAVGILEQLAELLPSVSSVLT
T1 sequence (P53611 1-331): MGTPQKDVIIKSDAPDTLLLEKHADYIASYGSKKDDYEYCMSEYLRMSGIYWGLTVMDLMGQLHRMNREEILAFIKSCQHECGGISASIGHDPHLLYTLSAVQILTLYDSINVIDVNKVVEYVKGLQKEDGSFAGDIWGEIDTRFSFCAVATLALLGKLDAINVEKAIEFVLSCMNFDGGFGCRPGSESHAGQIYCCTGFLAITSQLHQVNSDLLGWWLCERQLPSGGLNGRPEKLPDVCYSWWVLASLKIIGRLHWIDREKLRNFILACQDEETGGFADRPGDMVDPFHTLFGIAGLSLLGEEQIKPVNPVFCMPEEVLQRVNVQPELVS

GGTase II [4] = molecular target: T1, GGTase II; conditions: cited from earlier work
myeloma cells = conditions: cited from earlier work
GGTase I = GGTase I (Homo sapiens, UniProt P49354+P53609); experiment: GGTase I in vitro enzyme assay; type: biochemical
FTase = FTase (Homo sapiens, UniProt P49354+P49356); experiment: FTase in vitro enzyme assay; type: biochemical
FDPS = molecular target: T2, FDPS (Homo sapiens, UniProt P14324); experiment: FDPS in vitro enzyme assay; type: biochemical; conditions: ratio of GGDPS and FDPS IC50
T2 sequence (P14324 1-419): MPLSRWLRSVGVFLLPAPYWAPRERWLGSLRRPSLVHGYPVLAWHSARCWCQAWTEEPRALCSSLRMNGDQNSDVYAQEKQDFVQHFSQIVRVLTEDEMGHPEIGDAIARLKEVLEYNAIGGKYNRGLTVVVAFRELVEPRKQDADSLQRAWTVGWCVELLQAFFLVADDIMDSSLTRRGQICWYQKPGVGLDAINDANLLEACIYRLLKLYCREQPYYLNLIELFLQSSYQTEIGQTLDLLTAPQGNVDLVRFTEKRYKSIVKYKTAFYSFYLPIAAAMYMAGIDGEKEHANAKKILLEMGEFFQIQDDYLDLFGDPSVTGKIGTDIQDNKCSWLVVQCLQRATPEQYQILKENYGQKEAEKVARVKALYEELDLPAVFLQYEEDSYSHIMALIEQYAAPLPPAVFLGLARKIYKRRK

[5] = RPMI-8226 cells, 48 hours, immunoblot

SMILES: CC[C@H](C)C(=O)O[C@H]1C[C@@H](C)C=C2C=C[C@H](C)[C@H](CC[C@@H]3C[C@@H](O)CC(=O)O3)[C@H]21 [Lovastatin, reference compound]
- Impairment of protein prenylation in cells (RPMI-8226 cells [1]; lovastatin alone at 0.5 μM, RPMI-8226 cells, 48 hours): only minimally impairs protein prenylation
- Disruption of prenylation (positive control) (RPMI-8226 cells [2]): disrupts all prenylation

SMILES: O=C(O)C(Cn1cnc2cc(F)c(F)cc21)P(=O)(O)O (centres unmarked) [Compound 15]
- IC50 (GGTase II [3]): > 1 mM

SMILES: O=C(O)C(O)(Cc1cnc2ccccn12)P(=O)(O)O (centres unmarked) [Compound 3-IPEHPC]
- Potency as GGTase II inhibitor relative to 3-PEHPC (GGTase II [4]; more potent than 3-PEHPC): 25 fold

SMILES: O=C(O)C(O)(Cc1cccnc1)P(=O)(O)O (centres unmarked) [Compound 3-PEHPC]
- Concentration required to yield cellular effects (myeloma cells): > 5 mM

SMILES: O=C(O)C(Cn1cnc2ccccc21)P(=O)(O)O (centres unmarked) [Compound 13]
- Intracellular light chain levels (RPMI-8226 cells [1]; RPMI-8226 cells, 48 hours, ELISA): increase
- Membrane-bound Rab6 levels (RPMI-8226 cells [1]; RPMI-8226 cells, 48 hours, detergent fraction, immunoblot): decrease
- Disruption of H-Ras prenylation (representative farnesylated protein) (RPMI-8226 cells [1]; [5]): did not cause disruption
- Disruption of Rap1a prenylation (representative substrate for GGTase I) (RPMI-8226 cells [1]; [5]): did not cause disruption
- IC50 (GGTase I): > 1 mM

SMILES: O=C(O)C(O)(Cc1cnc2ccccn12)P(=O)(O)O (single isomer, unassigned; (+)) [(+)-enantiomer of 3-IPEHPC]
- Activity relative to the (−)-enantiomer (GGTase II [4]; more active than (−)-enantiomer): ~ 60 fold

SMILES: CC(Cn1cnc2ccccc21)(C(=O)O)P(=O)(O)O (centres unmarked) [Compound 14]
- IC50 (FTase): > 1 mM
- IC50 (GGTase I): > 1 mM

SMILES: CC(Cn1cnc2ccccc21)(P(=O)(O)O)P(=O)(O)O [Compound 18]
- Impairment of protein prenylation in cells (RPMI-8226 cells [1]; RPMI-8226 cells, 48 hours): no detectable impairment of protein prenylation
- IC50 (FTase): > 1 mM
- IC50 (GGTase I): > 1 mM
- Selectivity for FDPS relative to GGDPS (FDPS): >100
- IC50 (GGTase II [3]): > 1 mM

SMILES: Cc1cc2ncn(CC(P(=O)(O)O)P(=O)(O)O)c2cc1C [Compound 20]
- Impairment of protein prenylation in cells (RPMI-8226 cells [1]; RPMI-8226 cells, 48 hours): no detectable impairment of protein prenylation
- IC50 (FTase): > 1 mM
- IC50 (GGTase I): > 1 mM

SMILES: Cc1cc2ncn(CC(C(=O)O)P(=O)(O)O)c2cc1C (centres unmarked) [Compound 16]
- IC50 (FTase): > 1 mM
- IC50 (GGTase I): > 1 mM
- IC50 (GGTase II [3]): > 1 mM

SMILES: O=P(O)(O)C(Cn1cnc2cc(F)c(F)cc21)P(=O)(O)O [Compound 19]
- Concentration for cellular activity relative to parent compound 17 (RPMI-8226 cells [1]; higher concentration than compound 17): 20 fold

SMILES: O=P(O)(O)C(Cn1cnc2ccccc21)P(=O)(O)O [Compound 17]
- Impairment of protein prenylation in cells (RPMI-8226 cells [1]; RPMI-8226 cells, 48 hours): globally disrupts protein prenylation
- Impairment of protein prenylation in combination with lovastatin (RPMI-8226 cells [1]; co-incubation with lovastatin 0.5 μM, RPMI-8226 cells, 48 hours): enhanced the impairment of protein prenylation
- IC50 (GGTase I): > 1 mM
- IC50 (GGTase II [3]): > 1 mM
